Where two headings read alike, the source gives them in different places.

The results in this text go back to US10793568B2, “Hormone receptor modulators for treating metabolic conditions and disorders” (ARDELYX, INC., priority 2016, dated 2020).

Experiment [1] addresses ligand binding domain of human FXR (Homo sapiens (Human), UniProt Q96RI1). Briefly: FXR ligand binding assay (LanthaScreen TR-FRET, SRC2-2 peptide recruitment). As to conditions: for pEC50: -log EC50, concentration required to produce 50% activation; for Emax: read-out: % Efficacy.
In experiment [2] the target is human Farnesoid X receptor ligand-binding domain/Gal4 DNA binding domain chimera (Homo sapiens (Human), UniProt Q96RI1). Briefly: Cell-based assay of FXR activation (FXR-UAS-bla HEK 293T beta-lactamase reporter). The note with it: cellular FXR beta-lactamase reporter assay; for Emax: HEK-293T, extent of activation relative to GW4064, read-out: % Efficacy; for EC50: FXR-UAS-bla HEK 293T cells, 16 h, pEC50 = -log EC50. An outline of the steps:
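Readout is cleavage of the CCF4 FRET substrate (409 nm excitation, blue 447 nm signal) by beta-lactamase, expressed under UAS control after a Gal4–human FXR LBD chimera is activated in HEK 293T cells. Compounds were added as 3-fold dilutions for 16 h at 37 °C in 2% charcoal-stripped FBS medium. Curves were fit to a 3-parameter logistic equation to give pEC50, with % activation relative to GW4064.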
Background: In a reporter assay the amount or activity of a reporter protein is the signal.

Where [3] appears, read: extent of activation relative to GW4064.

ligand binding domain of human FXR, sequence (Q96RI1 262-486): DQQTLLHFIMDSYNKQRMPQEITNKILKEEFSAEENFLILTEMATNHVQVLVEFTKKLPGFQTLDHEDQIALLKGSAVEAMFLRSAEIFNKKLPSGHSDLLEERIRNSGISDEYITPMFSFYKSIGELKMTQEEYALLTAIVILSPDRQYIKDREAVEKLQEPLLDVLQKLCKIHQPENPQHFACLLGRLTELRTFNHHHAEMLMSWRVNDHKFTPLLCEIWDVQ
human Farnesoid X receptor ligand-binding domain/Gal4 DNA binding domain chimera, sequence (Q96RI1 262-486, change not shown): as the sequence (Q96RI1 262-486) above
human Farnesoid X receptor ligand-binding domain/Gal4 DNA binding domain chimera, sequence (P04386 1-147 partner): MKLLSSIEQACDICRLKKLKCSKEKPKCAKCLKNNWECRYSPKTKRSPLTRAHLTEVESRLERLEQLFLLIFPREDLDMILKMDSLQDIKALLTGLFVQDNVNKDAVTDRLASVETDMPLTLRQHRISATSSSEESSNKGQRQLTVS

Take `CS(=O)(=O)NC(=O)c1cc(F)c2nc(N3C[C@@H]4C[C@H]3C[C@H]4OC(=O)c3c(-c4c(Cl)cccc4Cl)noc3C3CC3)sc2c1` [Compound I-31, (1S,4S,5R)-2-[4-fluoro-6-(methanesulfonylcarbamoyl)-1,3-benzothiazol-2-yl]-2-azabicyclo[2.2.1]heptan-5-yl 5-cyclopropyl-3-(2,6-dichlorophenyl)-1,2-oxazole-4-carboxylate]: the pEC50 in experiment [1] stood at 7.4. The Emax in experiment [1] (setting [3]) was 117%; in experiment [2], 115%. The molecule further gave a concentration for a half-maximal effect (EC50) in experiment [2] of 158 nM.
Taken in the same sequence, the figures for `Cc1cccc(C)c1-c1noc(C2CC2)c1CO[C@@H]1C[C@@H]2C[C@H]1C(=O)N2c1ccc(C(=O)O)cc1` [Compound I-308, 4-[(1S,4R,5R)-5-{[5-cyclopropyl-3-(2,6-dimethylphenyl)-1,2-oxazol-4-yl]methoxy}-3-oxo-2-azabicyclo[2.2.1]heptan-2-yl]benzoic Acid] were 7.6, 150%, 99% and 3.98 nM.
For the molecule `O=C(NS(=O)(=O)C1CC1)c1ccc(N2C[C@@H]3C[C@H]2C[C@H]3OCc2c(-c3c(Cl)cccc3Cl)noc2C2CC2)cc1` [Compound I-60, N-(cyclopropanesulfonyl)-4-[(1S,4S,5R)-5-[[5-cyclopropyl-3-(2,6-dichlorophenyl)-1,2-oxazol-4-yl]methoxy]-2-azabicyclo[2.2.1]heptan-2-yl]benzamide], the pEC50 in experiment [1] is 8.2. Further, the Emax in experiment [1] (setting [3]) amounted to 170%. For the same molecule, in experiment [2], the Emax came out at 105% and the EC50 is 0.2 nM.
For `O=C(O)c1cc(C2CC2)c2nc(N3C[C@@H]4C[C@H]3C[C@H]4OC(=O)c3c(-c4c(Cl)cccc4Cl)noc3C3CC3)sc2c1` [Compound I-4, 4-cyclopropyl-2-[(1S,4S,5R)-5-[5-cyclopropyl-3-(2,6-dichlorophenyl)-1,2-oxazole-4-carbonyloxy]-2-azabicyclo[2.2.1]heptan-2-yl]-1,3-benzothiazole-6-carboxylic acid], in experiment [1], the pEC50 stood at 7.3. For the same molecule, in experiment [1] (setting [3]), the Emax was 166%. Further, in experiment [2], the Emax stood at 112% and the concentration for a half-maximal effect (EC50) was 3.16 nM.
Taken in the same sequence, the figures for `O=C(NS(=O)(=O)C1CC1)c1ccc(N2C[C@H]3C[C@@H]2C[C@@H]3OCc2c(-c3c(Cl)cccc3Cl)noc2C2CC2)cc1` [Compound I-232, 4-((1R,4R,5S)-5-((5-cyclopropyl-3-(2,6-dichlorophenyl)isoxazol-4-yl)methoxy)-2-azabicyclo[2.2.1]heptan-2-yl)-N-(cyclopropylsulfonyl)benzamide] were 8.1, 126%, 93% and 25.1 nM.
Molecule `C[C@@H]1[C@@H]2C[C@@H](C[C@H]2OCc2c(-c3c(Cl)cccc3Cl)noc2C2CC2)N1c1ccc(C(=O)O)cc1` [Compound I-360, 4-[(1S,3R,4S,5R)-5-[[5-cyclopropyl-3-(2,6-dichlorophenyl)-1,2-oxazol-4-yl]methoxy]-3-methyl-2-azabicyclo[2.2.1]heptan-2-yl]benzoic acid] registered a pEC50 in experiment [1] of 8.6. Also, in experiment [1] (setting [3]), the Emax is 117%. Moreover, in experiment [2], the Emax stood at 102% and a half-maximal effect (EC50) was put at 0.794 nM.
In experiment [1], `Cc1cccc(Cl)c1-c1noc(C2CC2)c1CO[C@@H]1C[C@@H]2C[C@H]1CN2c1ccc(C(=O)O)c(F)c1` [Compound I-115, 4-[(1S,4S,5R)-5-{[3-(2-chloro-6-methylphenyl)-5-cyclopropyl-1,2-oxazol-4-yl]methoxy}-2-azabicyclo[2.2.1]heptan-2-yl]-2-fluorobenzoic Acid] returned a pEC50 of 9.6. The Emax came to 144% in experiment [1] (setting [3]) and 108% in experiment [2]. The EC50 in experiment [2] was 2 nM.
In the same order, the values of `CCCS(=O)(=O)NC(=O)c1cc(F)c2nc(N3C[C@@H]4C[C@H]3C[C@H]4OC(=O)c3c(-c4c(Cl)cccc4Cl)noc3C3CC3)sc2c1` [Compound I-32, (1S,4S,5R)-2-{4-fluoro-6-[(propane-1-sulfonyl)carbamoyl]-1,3-benzothiazol-2-yl}-2-azabicyclo[2.2.1]heptan-5-yl 5-cyclopropyl-3-(2,6-dichlorophenyl)-1,2-oxazole-4-carboxylate] are 7.6, 148%, 110% and 126 nM.
In experiment [1], `Cn1nc(C(=O)NS(=O)(=O)C2CC2)cc1N1C[C@@H]2C[C@H]1C[C@H]2OCc1c(-c2c(Cl)cccc2Cl)noc1C1CC1` [Compound I-233, N-(cyclopropanesulfonyl)-5-[(1S,4S,5R)-5-{[5-cyclopropyl-3-(2,6-dichlorophenyl)-1,2-oxazol-4-yl]methoxy}-2-azabicyclo[2.2.1]heptan-2-yl]-1-methyl-1H-pyrazole-3-carboxamide] had a pEC50 of 7.8. For the same molecule, the Emax in experiment [1] (setting [3]) amounted to 77%. The EC50 in experiment [2] was under 31.6 nM.
`O=C(CCc1ccc(N2C[C@@H]3C[C@H]2C[C@H]3OCc2c(-c3c(Cl)cccc3Cl)noc2C2CC2)c(F)c1)NS(=O)(=O)C1CCOCC1` [Compound I-238, 3-(4-((1S,4S,5R)-5-((5-cyclopropyl-3-(2,6-dichlorophenyl)isoxazol-4-yl)methoxy)-2-azabicyclo[2.2.1]heptan-2-yl)-3-fluorophenyl)-N-((tetrahydro-2H-pyran-4-yl)sulfonyl)propanamide] had a pEC50 in experiment [1] of 8.6. Further, the Emax in experiment [1] (setting [3]) came out at 176%. Further, in experiment [2], the Emax came out at 95% and it took 2.51 nM to reach a half-maximal effect (EC50).
Taken in the same sequence, the figures for `O=C(O)c1cc([C@@H]2CCOC2)c2nc(N3C[C@@H]4C[C@H]3C[C@H]4OCc3c(-c4c(F)cccc4Cl)noc3C3CC3)sc2c1` [Compound I-266, 2-((1S,4S,5R)-5-((3-(2-chloro-6-fluorophenyl)-5-cyclopropylisoxazol-4-yl)methoxy)-2-azabicyclo[2.2.1]heptan-2-yl)-4-((S)-tetrahydrofuran-3-yl)benzo[d]thiazole-6-carboxylic Acid] were 8.6, 139%, 105% and 0.251 nM.
As for `O=C(O)c1cc(C2CCOCC2)c2nc(N3C[C@@H]4C[C@H]3C[C@H]4OCc3c(C4CCC5(CC4)CC5)noc3C3CC3)sc2c1` [Compound I-279], in experiment [1], the pEC50 was found to be 7.2. The Emax in experiment [1] (setting [3]) was 112%; in experiment [2], 104%. The same molecule showed an EC50 in experiment [2] of 39.8 nM.
As for `O=C(O)c1cc(F)c2nc(N3C[C@@H]4C[C@H]3C[C@H]4OCc3c(-c4c(Cl)cccc4Cl)noc3C3CC3)sc2c1` [Compound I-12, 2-[(1S,4S,5R)-5-{[5-cyclopropyl-3-(2,6-dichlorophenyl)-1,2-oxazol-4-yl]methoxy}-2-azabicyclo[2.2.1]heptan-2-yl]-4-fluoro-1,3-benzothiazole-6-carboxylic Acid], in experiment [1], the pEC50 was 9. Moreover, the Emax in experiment [1] (setting [3]) was determined as 153%. In experiment [2], the Emax came out at 122% and the concentration giving a half-maximal response (EC50) was 0.1 nM.
In the same order, the values of `Cc1cccc(Cl)c1-c1noc(C2CC2)c1CO[C@@H]1C[C@@H]2C[C@H]1CN2c1ccc(CCC(=O)O)cc1F` [Compound I-159, 3-{4-[(1S,4S,5R)-5-{[3-(2-chloro-6-methylphenyl)-5-cyclopropyl-1,2-oxazol-4-yl]methoxy}-2-azabicyclo[2.2.1]heptan-2-yl]-3-fluorophenyl}propanoic Acid] are 8.2, 144%, 100% and 1.58 nM.
In experiment [1], `Cn1nc(C(=O)O)cc1N1C[C@@H]2C[C@H]1C[C@H]2OCc1c(-c2c(Cl)cccc2Cl)noc1C1CC1` [Compound I-180, 5-[(1S,4S,5R)-5-[[5-cyclopropyl-3-(2,6-dichlorophenyl)-1,2-oxazol-4-yl]methoxy]-2-azabicyclo[2.2.1]heptan-2-yl]-1-methyl-1H-pyrazole-3-carboxylic acid] had a pEC50 of over 6.5. The EC50 in experiment [2] is under 316 nM.
For `CC(=O)OC(C)CCS(=O)(=O)NC(=O)c1ccc(N2C[C@@H]3C[C@H]2C[C@H]3OCc2c(-c3c(Cl)cccc3Cl)noc2C2CC2)cc1` (stereo partly drawn) [Compound I-216, 4-[({4-[(1S,4S,5R)-5-{[5-cyclopropyl-3-(2,6-dichlorophenyl)-1,2-oxazol-4-yl]methoxy}-2-azabicyclo[2.2.1]heptan-2-yl]phenyl}formamido)sulfonyl]butan-2-yl Acetate], in experiment [1], the pEC50 is 9.4 and the Emax was 145%. Besides, in experiment [2], the Emax stood at 112% and the EC50 is 0.398 nM.
For the molecule `O=C(O)CCc1ccc(N2C[C@@H]3C[C@H]2C[C@H]3OCc2c(-c3c(Cl)cccc3Cl)noc2C2CC2)cc1` [Compound I-147, 3-{4-[(1S,4S,5R)-5-{[5-cyclopropyl-3-(2,6-dichlorophenyl)-1,2-oxazol-4-yl]methoxy}-2-azabicyclo[2.2.1]heptan-2-yl]phenyl}propanoic Acid], in experiment [1], the pEC50 amounted to 8.1 and the Emax turned out to be 142%. Moreover, in experiment [2], the Emax was found to be 112% and the EC50 is 0.631 nM.
`O=C(NCc1nn[nH]n1)c1ccc(N2C[C@@H]3C[C@H]2C[C@H]3OCc2c(-c3c(Cl)cccc3Cl)noc2C2CC2)cc1` [Compound I-164, 4-[(1S,4S,5R)-5-{[5-cyclopropyl-3-(2,6-dichlorophenyl)-1,2-oxazol-4-yl]methoxy}-2-azabicyclo[2.2.1]heptan-2-yl]-N-(2H-1,2,3,4-tetrazol-5-ylmethyl)benzamide]: in experiment [1], the pEC50 came out at 9.7. In addition, in experiment [1] (setting [3]), the Emax worked out at 148%. In addition, in experiment [2], the Emax worked out at 118% and the EC50 is 79.4 nM.

The pEC50 is the EC50 on a negative log10 scale, so that one unit is a factor of ten. A higher pEC50 goes with a low EC50. A word on the EC50: it is the concentration at which the effect is half-maximal.
